Source: publication PMC10208276, “A Very Long-acting Exatecan and Its Synergism with DNA Damage Response Inhibitors” (Cancer Research Communications, 2023)
Entries after “also recorded” stand apart in the source; their conditions may differ. Like-named read-outs stand apart in the source and are kept apart here.

Assays:
drug-efflux pumps = details: cited from earlier work
[1] = cited from earlier work
tumor cells = test system: tumor cells; set-up: method as in PMID 12234607; details: cited from earlier work
[2] = test system: BRCA1-deficient MX-1 TNBC xenografts; set-up: method as in PMID 9685056; details: total dose of 25 and 75 mg (57 and 170 μmol)/kg, four times at 4-day intervals, at 28 days; cited from earlier work
[3] = test system: BRCA1-deficient MX-1 TNBC xenografts; assay: Antitumor activity of PEG-Exa in the MX-1 murine xenograft, alone and combined with TLZ or VX970; format: in vivo, female scid mice
Excerpt: Animals were housed at Murigenics.
To assess the interaction of the drug combination, we used an additivity index determined as TGcalc/TGobsd where […] and TGcalc is the product of TGobsd values of the individual drugs. Here, an index <1 indicates infra-additive, an index of 1 indicates additivity and an index >1 indicates a supra-additive or synergistic interaction.
We measured the effects of a combination of PEG-Exa with the PARPi TLZ and the ATRi VX970 on growth of MX-1 xenografts. […] To assess the interaction of a drug combination, we used an additivity index ([28]) determined as TGcalc/TGobsd where TGcalc is the product of TGobsd values of the individual drugs and TGobsd is the observed tumor growth in the presence of both drug. Here, an index <1 indicates infra-additive, an index of 1 indicates additivity and an index >1 indicates a supra-additive or synergistic interaction.

[4] = test system: patient-derived triple-negative breast cancer (TNBC) xenografts; set-up: method as in PMID 32075943; details: cited from earlier work
[5] = test system: relapsed small cell lung cancer; set-up: method as in PMID 33848478; details: combination of topotecan with the ATRi VX-970, 5-day interval of a 21-day cycle; cited from earlier work
[6] = VX970 64 μmol/kg PO, 4 consecutive days a week, alone
[7] = single intraperitoneal doses of 10 and 15 μmol/kg

Molecule: CC[C@@]1(O)C(=O)OCc2c1cc1n(c2=O)Cc2c-1nc1cc(F)c(C)c3c1c2[C@@H](N)CC3 [Exa, exatecan]
- substrate for drug-efflux pumps (drug-efflux pumps): does not appear to be a substrate
- t1/2 ([1]; in humans): approximately 10 hours
- increase of inhibitory potency upon prolonged exposure (tumor cells): about 80 fold
- effect on MX-1 TNBC xenografts [2]: regression

Molecule: CCc1c2c(nc3ccc(O)cc13)-c1cc3c(c(=O)n1C2)COC(=O)[C@]3(O)CC [SN-38]
- apparent t1/2 ([1]; SN-38 formed from CPT-11): approximately 12 hours

Molecule: Cn1ncnc1[C@H]1c2n[nH]c(=O)c3cc(F)cc(c23)N[C@@H]1c1ccc(F)cc1 [TLZ, talazoparib]
- TGobsd ([3]; 0.4 μmol (0.15 mg)/kg orally every day, Fig. 4A): 0.71

Molecule: CNCc1ccc(-c2cc(-c3nc(-c4ccc(S(=O)(=O)C(C)C)cc4)cnc3N)on2)cc1 [VX970]
- AUC of median MX-1 Tumor volume ([3]; VX970 16 μmol/kg alone): 0.98 Fraction of vehicle control
- AUC of median MX-1 Tumor volume ([3]; VX970 32 μmol/kg alone): 0.96 Fraction of vehicle control
- TGI [3, 6]: 0
- TGobsd, AUC of median MX-1 Tumor volume [3, 6]: 1.04 Fraction of vehicle control
- effect on growth of MX-1 xenografts ([3]; VX970 alone, 64 μmol/kg for 4 consecutive days a week): do not affect tumor growth; also recorded: no effect

Molecule: CCc1c2c(nc3ccc(OC(=O)N4CCC(N5CCCCC5)CC4)cc13)-c1cc3c(c(=O)n1C2)COC(=O)[C@]3(O)CC [irinotecan]
- responsive xenografts ([4]; xenografts containing both biomarkers): 100%
- response rate ([4]; xenografts with BRCAness): 50%
- response rate ([4]; xenografts with high SLFN11): 75%

Molecule: CC[C@@]1(O)C(=O)OCc2c1cc1n(c2=O)Cc2cc3c(CN(C)C)c(O)ccc3nc2-1 [topotecan]
- ORR [5]: 36%

Molecule: PEG40kDa-[exatecan]4 (Mod = 4-Cl-C6H4-SO2-) [3A]
- potency in growth suppression relative to PLX038A (PEG-SN-38) ([3]; […] PEG-Exa nearly identical to 15 μmol/kg PLX038A): approximately 6 fold
- dose lower than dose of free Exa required to suppress MX-1 xenografts ([3]; single 10 μmol/kg versus total 57 μmol/kg free Exa (ref 26)): 6 fold
- dose lower than dose of free Exa required to suppress MX-1 xenografts ([3]; single 10 μmol/kg versus total 170 μmol/kg free Exa (ref 26)): 18 fold
- duration of tumor growth suppression ([3]; single dose of 10 μmol/kg): over 40 days
- tumor growth of MX-1 xenografts ([3]; single dose of 10 μmol/kg): complete suppression of tumor growth
- duration of complete growth inhibition [3, 7]: > 48 days
- growth of tumors [3, 7]: complete growth inhibition
